What all share (format): cell-based, human
Assay [1] deals with pluripotent stem cells (PSC). The experiment in a line: Differentiation of PSC to intermediate mesoderm with CHIR99021, marker expression by qPCR/ICC. The source says: Generation of ESF from pluripotent stem cells (PSC) involves sequential differentiation of the cells through a series of intermediate progenitor cells species (FIG. 6). The first step (FIG. 1a) requires the specification of intermediate mesoderm (IM), a common mesodermal progenitor for both nephric and reproductive tracts (Yucer et al., 2017). […] We observed high levels of mesodermal-specific Brachyury (TBXT) gene expression, and concurrent reduction of pluripotency markers OCT3/4 and SOX2 in 2 days (FIG. 1b, d). LHX1 and PAX2, two transcription factors expressed in the intermediate mesoderm (IM), also were detected at this time (FIG. 1c, d). […] At day 4 of differentiation, TBXT expression was decreased, LHX1 and PAX2 expression was either maintained or increased, and expression of anti-Müllerian hormone receptor 2 (AMHR2), a specific marker of Müllerian duct mesenchyme, increased (FIG. 1b, c, e).
(§1) Monolayer Cell Culture and Differentiation: Both embryonic (H7) and iPS (reprogrammed from Coriell fibroblast GM03651 by Sendai virus (ThermoFisher #A16517) following manufacturer's instruction) cells lines of female origin (XX) were used for differentiation as well as co-culture. Cells were cultured in mTeSR1 media (STEMCELL Technologies #85875) and on Corning Matrigel hESC-Qualified Matrix (Corning™ #354277) coated tissue culture plastic plates. Lot specific dilution factor volume provided by the manufacturer is diluted into 24 mL of cold DMEM/F12 (ThermoFisher Scientific #11320-082). To coat: 1 mL of this solution is applied to 1 well of a 6 well plate (9.6 cm^2) and incubated at RT for 1 hr or 37 C for 30 min. To differentiate, PSC were dissociated to single-cell level using Accutase (EMD Millipore #SCR005). Once at single cell level, equal volume mTeSR1 was added to stop dissociation and cells were pelleted at 0.2e3 rcf for 5 min. Supernatant was discarded and the remaining pellet of PSC was resuspended in mTeSR1 and 10 μM Y27632 (Reprocell #04-0012-02) and plated onto Corning Matrigel hESC-Qualified Matrix coated tissue culture plates at 3×10^5 per 3.8 cm^2 or equivalent density. Media is replaced with Differentiation Basal Media (Advanced RPMI 1640 (Gibco #12633020), 1× Gluatmax (Gibco #35050061) and […] CHIR99021 (STEMCELL Technologies #72054). After 4 days, the media is changed to Differentiation Basal Media containing 100 ng/mL recombinant Human WNT7A (R&D Systems #3008-WN-025). The final differentiation treatment media was Differentiation Basal Media with 10 ng/mL Recombinant Human BMP2 (R&D Systems #355-BM010), and 10 nM β-estradiol (E2, Millipore Sigma #E2758-250MG). While it varies by cell line, the expected yield at day 12 off differentiation when starting with 3×10^5 stem cells is 0.6×10^6-13.2×10^6 PSC-ESF.
(§2) qRT-PCR: RNA Isolation was performed using the RNAqueous-Micro Total RNA Isolation Kit (ThermoFisher Scientific #AM1931) following manufacturer's instructions. DNAse treatment and reverse transcription were performed using SuperScript IV VILO Master Mix with ezDNase Enzyme (ThermoFisher Scientific #11766050) following manufacturer's instructions. Quantitative PCR was performed using SYBR Green PCR Master Mix (ThermoFisher Scientific #4312704) using the QuantStudio 7. ESC and iPSC differentiated cells were used for analysis. A list of primers can be found in Table 1.
Immunocytochemistry: Monolayer cultures: cells cultured on Matrigel coated coverslips were washed with 1×DPBS (Corning #21031CV) before fixing the cells using 4% Formaldehyde solution (Millipore Sigma #P6148) for 20 min at room temperature. After 20 min, cells are washed 3 times with 1×DPBS. Prior to staining, cells were blocked for 1 hr at RT in PBS (Fisher Scientific #AM9625), 0.1% BSA (Millipore Sigma #A7906), 0.25% Triton-X (Millipore Sigma #T8787), and 10% Normal Goat Serum (Jackson Immuno Research #005-000-121). Primary Antibodies were diluted into the same buffer for incubation at 4° C. overnight. […]

For another assay, the system named is Hedgehog signaling. The assay is described as follows: Inhibition of Hedgehog signaling in PSC-ESF/EEO co-cultures with cyclopamine, qPCR. How it is done: FIG. 12a-FIG. 12d. […] Related to FIG. 5 a. Schematic of treatment paradigm for inhibition of Hedgehog signaling. Co-cultures were cultured in vehicle treatment media with either 10 uM cyclopamine (+) or vehicle (EtOH, −). After 48 h co-cultures were harvested for RNA and qPCR analysis. b. Gene expression of direct downstream mediators of IHH signaling: GLI1 and GLI2. […] (d12 v.−ns p-value=0.0953; −v.+ns p-value−v.+p-value=0.2661). c. […] (Lachman, A., 2010; ENCODE Project Consortium, 2011) d. Top 10 pathways enriched in decidualized co-cultured PSC-ESF over decidualized monolayer ESF as analyzed by the integrated Bioplanet 2019 platform. Both enrichment analyses done using Enrichr with a 2-fold cutoff ((http://amp.pharm.mssm.edu/Enrichr/).
BMP2, a member of the TGF B family, is necessary for decidualization (FIG. 5d). BMP2 in ESF can be activated by hormone treatments, such as P4 and cAMP, which directly increase BMP2 expression to mediate decidualization in hESF (Lee et al., 2007). In the mouse, stromal BMP2 is further amplified indirectly by P4 activated IHH from the luminal epithelium (Lee et al., 2007). Increased stromal BMP2 subsequently mediates decidualization by activating WNT (WNT4) signaling, FK506-binding proteins (FKBP5), and prostaglandin (PTGS1) (Li et al., 2013). To examine the hormone mediated activation of IHH signaling in co-cultured PSC-ESF, we analyzed expression of IHH and BMP signaling targets after decidualization. […] HOXA10, a mediator of stromal hormone response, was not increased by co-culture. However, it trended towards an increase after hormone treatment, though without statistical significance (FIG. 5e). Importantly, we observed that BMP2 and BMP2 signaling targets (WNT4, FKBP5, and PTGS1) also were increased in expression in response to co-culture, while BMP2, FKBP5, and PTGS1 were further increased by hormone treatment (FIG. 5e).
as §2
In general terms: In qPCR the cycle at which signal appears reflects the starting amount.

Assay [2] concerns PSC derived cells, day 4 of differentiation. The experiment in a line: WNT7A treatment day 4-8 to expand Müllerian duct mesenchyme (PSC-ESP), marker expression by qPCR/ICC. How it is done: To preferentially expand the Müllerian duct mesenchyme population, at day 4 we continued activating the WNT/B-catenin pathway with WNT7A (100 ng/ml) treatment from day 4-8. […] The Müllerian duct is patterned along the anterior-posterior axis to develop into the fallopian tubes (HOXA9), endometrium (HOXA10 and HOXA11), cervix (HOXA11), and vagina (HOXA13) (Du and Taylor, 2015). […] Immunocytochemical (ICC) analyses validated the qPCR results with increasing nuclear expression of the HOXA11 transcription factor from day 0 to day 8 (FIG. 1g). The expression of mesenchymal lineage markers platelet derived growth factor beta (PDGFRβ) and vimentin (VIM) supported specification to the stromal cell type (FIG. 1h). HOXA11 was confirmed to be co-expressed with mesenchymal markers AMHR2 and VIM (FIG. 1h, i). […] Further, 93.31+1.46% of the cells were Ki67^+, confirming that the cells at day 8 are in cell cycle (FIG. 1i, j). PSC-ESP at day 8 of differentiation could be frozen and thawed for subsequent differentiation, generating cells with appropriate proliferative properties and lineage-specific marker expression (FIG. 7f, g). In toto, these findings indicate that developmentally and regionally appropriate endometrial stromal progenitors, which we termed PSC-ESP, were generated at this point of the differentiation protocol.
as §1
qRT-PCR: RNA Isolation was performed using the RNAqueous-Micro Total RNA Isolation Kit (ThermoFisher Scientific #AM1931) following manufacturer's instructions. DNAse treatment and reverse transcription were performed using SuperScript IV VILO Master Mix with ezDNase Enzyme (ThermoFisher Scientific #11766050) following manufacturer's instructions. Quantitative PCR was performed using SYBR Green PCR Master Mix (ThermoFisher Scientific #4312704) using the QuantStudio 7. ESC and iPSC differentiated cells were used for analysis. A list of primers can be found in Table 1. […]

Setting [3] is: 10 uM cyclopamine, 48 h, vs vehicle (EtOH).
Where [4] appears, read: day 8, after CHIR99021 day 0-4 and WNT7A day 4-8, ICC.

Values joined by “and” are separate entries in the source; they are usually repeats but may differ in a detail not shown here. Equal values may be shown once.

As for `Cc1c[nH]c(-c2cnc(NCCNc3ccc(C#N)cn3)nc2-c2ccc(Cl)cc2Cl)n1` [CHIR99021], the “LHX1 and PAX2 (intermediate mesoderm transcription factors) expression” value in assay [1] (8 μM CHIR99021, day 2) is reported as “detected”. The “mesodermal-specific Brachyury (TBXT) gene expression” value in assay [1] (8 μM CHIR99021, day 2 vs day 0, qPCR) is “high levels”. Moreover, the “expression of AMHR2, marker of Müllerian duct mesenchyme” value in assay [1] (8 μM CHIR99021, day 4 of differentiation) is on record as “increased”. The “pluripotency markers OCT3/4 and SOX2” value in assay [1] (8 μM CHIR99021, in 2 days, qPCR/ICC) is “reduction”. In addition, the “expression of endoderm and mesendoderm marker SOX17” value in assay [1] (8 μM CHIR99021, qPCR) is recorded as “low but significant increase”. Besides, in assay [1] (CHIR99021 treatment of PSC), the “cell expansion of treated PSC” value is listed as “rapid expansion of cells”. In assay [1] (day 4, ESC, both concentrations of CHIR99021), the “LHX1 and PAX2 induction, comparison of concentrations of CHIR99021” value was “highly, but differently induced”.
With `CC1=C2C[C@H]3[C@@H](CC=C4C[C@@H](O)CC[C@@]43C)[C@@H]2CC[C@]12O[C@@H]1C[C@H](C)CN[C@H]1[C@H]2C` [cyclopamine], in the assay with Hedgehog signaling (setting [3]), the GLI1 gene expression entry is “significantly downregulated” and the GLI2 gene expression entry was “similarly regulated without statistical significance”. For the same molecule, in the assay on Hedgehog signaling (cyclopamine 48 hr, co-culture), the BMP2 expression result is on record as “trended towards a reduction”, the HOXA10 expression entry is “significant reduction” and the NR2F2 expression entry was “significant reduction”.

B1: WNT7A: recombinant Human WNT7A (R&D Systems), used as second Wnt/β-catenin agonist (protein, UniProt O00755 32-349, looked up)
Protein Wnt-7a: LGASIICNKIPGLAPRQRAICQSRPDAIIVIGEGSQMGLDECQFQFRNGRWNCSALGERTVFGKELKVGSREAAFTYAIIAAGVAHAITAACTQGNLSDCGCDKEKQGQYHRDEGWKWGGCSADIRYGIGFAKVFVDAREIKQNARTLMNLHNNEAGRKILEENMKLECKCHGVSGSCTTKTCWTTLPQFRELGYVLKDKYNEAVHVEPVRASRNKRPTFLKIKKPLSYRKPMDTDLVYIEKSPNYCEEDPVTGSVGTQGRACNKTAPQASGCDLMCCGRGYNTHQYARVWQCNCKFHWCCYVKCNTCSERTEMYTCK
For the molecule B1, the “expression of endometrium specific genes HOXA10 and HOXA11” value in assay [2] (100 ng/mL WNT7A day 4 to day 8, only in the 8 uM CHIR99021 condition) is “only induced high expression”. For the same molecule, in assay [2] (100 ng/ml WNT7A, day 4-8, qPCR), the “Müllerian mesenchyme specific AMHR2 expression” value is on record as “further induced” and the “epithelium specific marker WNT7A expression” value is “did not induce”. In addition, the “HOXA10 and HOXA11 expression” value in assay [2] (100 ng/ml WNT7A, day 8 of differentiation, qPCR) is reported as “significantly upregulated”. Moreover, in assay [2] (WNT7A day 4 through 8, d4 vs d8, qPCR), the “HOXA9 (fallopian tube) and HOXA13 (vagina) expression” value is recorded as “not significantly upregulated”. For the same molecule, in assay [2] (setting [4]), the “DAPI+ cells expressing both AMHR2 and HOXA11” value was 78.55+8.17% and 78.5%; the “DAPI+ cells positive for HOXA11” value is 92.27+5.15% and 92.3%; the “cells Ki67+” value is 93.31+1.46% and 93.3%.

For the origin of these results see patent US12681006B2, “Methods of generating human endometrial stromal fibroblasts and three-dimensional multi-layered human endometrial tissue compositions” (Northwestern University, priority 2021, dated 2026).
